The results in this text go back to patent US12622890B2, “Use of the active compound in the prevention or treatment of ovarian dysfunction diseases” (INSTITUTE OF BIOPHYSICS, CHINESE ACADEMY OF SCIENCES, priority 2022, dated 2026).

Counter-ions that a name gives are not always drawn.

The subject of one assay is ovarian tissues. In words: RNA transcription level sequencing of ovarian tissues, differentially expressed genes. It counts as in vivo, mice. To be noted: ovarian tissue RNA sequencing, FC>2, Q<0.05. How it is done: Mice were sacrificed after various treatments, and ovarian tissues were taken, snap-frozen in liquid nitrogen, stored at −80° C., and sent to Annoroad for RNA transcription level sequencing. Bioinformatics analysis and mapping were performed on the sequencing results. […] The differential genes of the three treatment groups were intersectioned. […] These differential gene sets were then subjected to Gene Ontology function (GO) enrichment (FC>2, Q<0.05) (FIG. 16) and signaling pathway (KEGG) analysis mapping (FIG. 17), respectively.

Assay [1] deals with POI mice. The experiment in a line: Serum estradiol (E2) level in POI mice. The class given is in vivo. Particulars: for E2: serum, after 12 days 100 mg/kg/d oral. The text has this: (§1) Biomarkers mentioned herein, such as follicle stimulating hormone (FSH), estrogen (e.g., E2), and superoxide dismutase (SOD), malondialdehyde (MDA), relative reactive oxygen species (ROS), and lactate dehydrogenase (LDH), etc., can be detected using methods commonly known in the field. Detection methods typically cover methods that quantify the level of a biomarker in a sample (quantitative methods). Which of the following methods are suitable for qualitative and/or quantitative detection of biomarkers is generally known to those skilled in the field. Samples can be conveniently measured, for example for proteins using immunoassays such as ELISA, RIA, etc., which are commercially available.
(§2) After 12 days of administration, half of the mice in each group were sacrificed, and their blood was collected and kept still. The serum was separated after centrifugation at 4500 rpm and stored in a refrigerator at −80° C. for future use to measure levels of follicle stimulating hormone, estrogen, and the indexes of oxidative stress such as superoxide dismutase (SOD) and malondial dehyde (MDA).
(§3) After 12 days of administration, half of the mice in each group were sacrificed, and their blood was collected and kept in still. The serum was separated after centrifugation at 4500 rpm and stored in a refrigerator at −80° C. for future use to measure levals of follicle stimulating hormone, estrogen, and the indexes of oxidative stress such as superoxide dismutase (SOD) and malondialdehyde (MDA).

For assay [2], the system named is POI mice. The experiment in a line: Serum FSH level in POI mice. The class given is in vivo. Particulars: for FSH: serum, after 12 days 100 mg/kg/d oral.
Excerpt: as §1, §2, §3
• 1. Hormone levels in mice blood of Example 1 are measured in this embodiment.

Assay [3] deals with POI mice. The experiment in a line: Serum relative reactive oxygen species (ROS) level. The class given is in vivo.
Excerpt: as §1
(§4) The oxidative stress hypothesis believes that the reduction of antioxidant components in the body leads to the weakening of the ability to remove free radicals, which leads to oxidative damage of biological macromolecules, and the imbalance of cellular oxidative and antioxidant functions, which leads to oxidative stress, and then leads to disease and aging. Oxygen free radicals act on unsaturated fatty acids of lipids to generate lipid peroxides, including malondialdehyde (MDA) and so on. The antioxidant defense system of scavenging free radicals includes superoxide dismutase (SOD) and so on. Recently, oxidative stress has been reported to be associated with ovarian aging and POI in primates. Therefore, this embodiment examined the effects of DMF, HDCA, and DMF+HDCA on oxidative stress in mice with premature ovarian failure, and the results are shown in Table 5, FIGS. 9 to 12.

Assay [4] is described as follows: Body weight of POI model mice before modeling, after modeling and after treatment. Particulars: for Body weight before modeling: D 0, 100 mg/kg/d oral; for Body weight after modeling: D 7, 100 mg/kg/d oral; for Body weight after treatment: D 13, 100 mg/kg/d oral. The class given is in vivo. The procedure:
Animal model establishment: A total of 34 C57 female mice (8-week-old) were selected and intraperitoneally injected with the ratio of 120 mg/kg cyclophosphamide (SIGMA) and 30 mg/kg Busulfan (Aladdin) once a day for 1 week at the dose of 0.1 mL/10 g to establish the model of POI.
Grouping: 34 POI model mice were randomly divided into four groups: sodium fumarate (SF) treatment group (n=9), hyodeoxycholic acid (HDCA) treatment group (n=8), sodium fumarate plus hyodeoxycholic acid (mass ratio 1:1) combination (SF+HDCA) treatment group (n=8) and normal saline (Vehicle) group (n=9). Mice in the SF group were given oral administration of SF at the ratio of 100 mg/kg/d body weight, mice in the HDCA group were given oral administration of HDCA at the ratio of 100 mg/kg/d body weight, and mice in the combination group were given oral administration of SF and HDCA at the ratio of 100 mg/kg/d body weight. SF and HDCA were dissolved with 0.9% normal saline when used. Mice in the vehicle group were given the same amount of normal saline orally. All the mice were treated consecutively for 12 days.
Body weight were recorded at three time points, before modeling (at the beginning of treatment), after modeling and after treatment.
Animal model establishment: A total of 24 C57 mice (8-week-old) were selected and intraperitoneally injected with the ratio of 120 mg/kg cyclophosphamide and 30 mg/kg Busulfan once a day for 1 week at the dose of 0.1 mL/10 g to establish the model of POI.
Grouping: 24 POI model mice were randomly divided into four groups: dimethyl fumarate (DMF) treatment group (n=5), hyodeoxycholic acid (HDCA) treatment group (n=6), dimethyl fumarate plus hyodeoxycholic acid (mass ratio=1:1) combination (DMF+HDCA) treatment group (n=7) and normal saline (Vehicle) group (n=6). Mice in the DMF treatment group were orally administrated at the ratio of 100 mg/kg/d body weight. Mice in the HDCA treatment group were given oral administration of HDCA at the ratio of 100 mg/kg/d body weight, and mice in the combination group were given oral administration of DMF and HDCA at the ratio of 100 mg/kg/d body weight. Once daily, DMF and HDCA were dissolved in 0.9% normal saline when used. Mice in normal saline group were given the same amount of normal saline orally every day. The drug was administered for 12 days.
Body weight were recorded at three time points, before modeling (at the beginning of treatment, the 0th day), after modeling (the 7th day) and after treatment (the 13th day).
The body weight of POI model mice of each group was measured before modeling, after modeling and after treatment.

The test system of assay [5] is POI mice. In words: Serum superoxide dismutase (SOD) level, oxidative stress. The class given is in vivo.
Excerpt: as §1, §2, §3, §4

In assay [6] the test system is POI model mice. In words: Estrous cycle observation by vaginal smear cytology in POI model mice. It counts as in vivo.
Assay [7] relates to POI mice. The experiment in a line: Serum malondialdehyde (MDA) level, oxidative stress. It counts as in vivo.
Excerpt: as §1, §2, §3, §4

The subject of assay [8] is POI model mice. In words: Estrous cycle observation by vaginal smear cytology in POI model mice. The class given is in vivo. The procedure:
Cytological observation of vaginal smear was performed daily.
The vagina of mice was exposed, and about 30 μl of normal saline was dripped into the vagina, gently aspirated onto the slide, and observed under the microscope. Staining was performed when necessary, fixed with 95% ethanol for 10 minutes, stained with hematoxylin in aqueous solution for 5-8 minutes, washed with running water for color separation, and then stained with eosin for 3 minutes. After drying. the slices were sealed with neutral gum.
The vagina of mice was exposed, and about 30 μl of normal saline was dripped into the vagina, gently aspirated onto the slide, and observed under the microscope. Staining was performed when necessary, stained with hematoxylin in aqueous solution for several minutes after drying, washed with running water for color separation, and then stained with alchhol eosin for several seconds. The slices were sealed with neutral gum.
During the estrous cycle, a series of histological and physiological changes occur in the reproductive and endocrine systems of mice. According to these changes, the estrous cycle can be divided into proestrous (P), estrous (E), metestrum (M) and diestrum (D). • 1. Observation of estrous cycle in mice of Example 1
After modeling and treatment, there were 6 mice left in the normal saline group, 6 mice left in the sodium fumarate treatment group, 7 mice left in the hyodeoxycholic acid group, and 7 mice left in the sodium fumarate and hyodeoxycholic acid combination group. […] The estrous cycle was divided into four periods (P: proestrous; E: estrous period; M: metestrum; D: diestrum) for vaginal smear cytological observation, the results are shown in FIG. 3.
The estrous cycle of mice was plotted according to the cytological results of vaginal smears observed for 12 consecutive days, and the results are shown in FIG. 4. The estrous cycle of mice is about 4 to 5 days, which is divided into four periods alternately. […] The estrous cycle of 4 mice was recovered in sodium fumarate treatment group. The estrous cycle of 3 mice was recovered in HDCA group. The estrous cycle of 6 mice was recovered in group treated with SF and HDCA.
This is another data set of the same source.

Assay [9] concerns aged mice with ovarian dysfunction. In words: Ovulation after controlled ovarian hyperstimulation in aged mice. It counts as in vivo. Particulars: fourteen months old mice. The procedure:
In this Embodiment, the effect of sodium fumarate and hyodeoxy cholic acid on ovulation in aged mice with ovarian dysfunction (ovarian function decline due to natural aging) was examined. Fourteen months old mice were divided into three groups: control group (n=6), sodium fumarate group (SF, n=4), sodium fumarate and hyodeoxy cholic acid group (SF+HDCA, n=3).
Methods: After controlled ovarian hyperstimulation (48 hours after pregnant horse serum injection, followed by chorionic gonadotropin injection), the ampulla of fallopian tubes of mice was collected 14-16 hours later, and the number of oocytes obtained was recorded. […] All 4 mice in the SF group ovulated.

The subject of assay [10] is POI mice. The experiment in a line: Serum lactate dehydrogenase (LDH) level. It counts as in vivo.
Excerpt: as §1

Setting [11] is: Example 2, FIG. 8, not statistically significant.
The mark [12] stands for this setting: serum, POI mice after treatment.
Setting [13] is: Example 2, during drug administration, FIG. 5B.
Setting [14] is: Example 1, during drug administration, FIG. 4B.

Consider `COC(=O)/C=C/C(=O)OC` [DMF, dimethyl fumarate], for which, in the assay with ovarian tissues, the “Number of genes down-regulated compared with the control group” value stood at 5261 genes and the “Number of genes up-regulated compared with the control group” value is 1547 genes. In addition, in the assay on POI mice [1] (setting [11]), the “Serum E2 level compared with the normal saline group” value is “certain tendency to decrease”. Moreover, in the assay with POI mice [1] (Example 2 POI mice), the E2 is on record as 48.86 ± 11.41 pg/mL. Moreover, the “Serum FSH level compared with the normal saline group” value in the assay with POI mice [2] (setting [11]) is listed as “certain decreasing trend”. The compound further registered an FSH in the assay with POI mice [2] (Example 2 POI mice) of 2.39 ± 1.07 mIU/mL. Also, in the assay on POI mice [3] (FIG. 11), the “ROS levels compared with the normal saline group” value is “significantly reduced”. Besides, the ROS in the assay on POI mice [3] (relative ROS level in serum, POI mice after treatment) came to 4.610 ± 0.476. Besides, in assay [4] (Example 2 POI mice), the “Body weight before modeling” value was 19.22 ± 1.39 g, the “Body weight after modeling” value amounted to 16.54 ± 1.44 g and the “Body weight after treatment” value came to 16.98 ± 1.99 g. In addition, the “Activity of SOD compared with the normal saline group” value with POI mice [5] (FIG. 9, difference not significant) is on record as “increased”. In addition, the SOD with POI mice [5] (setting [12]) stood at 14.42 ± 9.05 U/mL. Moreover, in the assay on POI model mice [6] (Example 2), the “Effect on mice with premature ovarian failure (conclusion from estrous cycle)” value was “preventive and therapeutic effects”. Moreover, in the assay on POI model mice [6] (setting [13]), the “Average rate of diestrum (D) in estrous cycle” value came out at 55.00%, the “Average rate of estrous (E) stage in estrous cycle” value is 15.00%, the “Average rate of metestrum (M) in estrous cycle” value worked out at 2.50% and the “Average rate of proestrous (P) in estrous cycle” value stood at 27.50%. The “Number of mice with estrous cycle recovered” value with POI model mice [6] (Example 2, 12 days observation, DMF n=5, HDCA n=6, DMF and HDCA n=7) was determined as 4 mice. Moreover, the “MDA activity compared with the normal saline group” value in the assay on POI mice [7] (FIG. 10, no significant difference) is reported as “reduced to some extent”. The MDA with POI mice [7] (setting [12]) is 1.83 ± 3.06 nmol/mL.
Regarding `O=C([O-])/C=C/C(=O)[O-].[Na+].[Na+]` [SF, sodium fumarate], in the assay with POI mice [1] (Example 1, FIG. 7), the “Serum E2 level compared with the normal saline group” value is “tendency to increase”. The compound also gave an E2 in the assay with POI mice [1] (Example 1 POI mice) of 57.24 ± 4.56 pg/mL. Also, the “Serum FSH level compared with the normal saline group” value in the assay on POI mice [2] (Example 1, FIG. 6) is “certain increasing trend”. The FSH in the assay with POI mice [2] (Example 1 POI mice) is 8.56 ± 2.59 mIU/mL. Moreover, in assay [4] (Example 1 POI mice), the “Body weight before modeling” value worked out at 18.77 ± 0.63 g, the “Body weight after modeling” value turned out to be 18.15 ± 0.92 g and the “Body weight after treatment” value amounted to 18.07 ± 1.03 g. Further, in [4] (Example 1 POI mice, FIG. 2A), the “Weight recovery after chemotherapy” value is recorded as “significantly beneficial”. Moreover, the “Weight recovery after chemotherapy” value in assay [4] (Example 2 POI mice, FIG. 2B) is listed as “significantly beneficial”. Besides, in the assay with POI model mice [8] (Example 1), the “Effect on mice with premature ovarian failure (conclusion from estrous cycle)” value is “preventive and therapeutic effects”. In the assay with POI model mice [8] (setting [14]), the “Average rate of diestrum (D) in estrous cycle” value came out at 20.83%, the “Average rate of estrous stage (E) in estrous cycle” value is listed as 20.83%, the “Average rate of metestrum (M) in estrous cycle” value stood at 18.10% and the “Average rate of proestrous (P) in estrous cycle” value was determined as 40.28%. Moreover, the “Number of mice with estrous cycle recovered” value in the assay on POI model mice [8] (Example 1, 12 days observation, 6 SF, 7 HDCA, 7 SF and HDCA mice left) is listed as 4 mice. For the same compound, in assay [9], the “Restoration of ovulation in aged mice” value is “can restore ovulation”. In addition, in [9] (SF n=4, SF+HDCA n=3, FIG. 13), the “Number of mice that ovulated” value turned out to be 4 mice. For the same compound, the “Activity of LDH compared with the normal saline group” value in the assay on POI mice [10] (FIG. 12) was “reduced to some extent”. Further, the LDH with POI mice [10] (setting [12]) is 3136.09 ± 294.67 U/mL.
